# Assay results: PubChem BioAssay AID1259411 (Chemical Carcinogenesis Research Information System (CCRIS), 2018)
# Activity calls are given as the source filed them. How the calls were made is not given here.
# Tested on: rodent carcinogenicity bioassays, tumor incidence
# Assay: CCRIS carcinogenicity studies
# Procedure, shortened: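 Archive of carcinogenicity, mutagenicity, tumor promotion and tumor inhibition results drawn from journals, NCI reports and other sources, expert-reviewed; covers 1985-2011 and is no longer updated.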
smiles,measurement,setting,value
BrCCBr,carcinogen call,"Species: FISH, Strain/Sex: JAPANESE MEDAKA/MALE,FEMALE, Route: IMMERSION, Dose: 0, 0.133, 6.2, 18.58 MG/L IN WATER FOR UP TO 97 D (STUDY DURATION: 58 WK), Dose: 0, 0.133, 6.2, 18.58 MG/L IN WATER FOR UP TO 97 D (STUDY DURATION: 58 WK), Tumor Site: Type of Lesion: LIVER: HEPATOCELLULAR ADENOMA, HEPATOCELLULAR CARCINOMA, CHOLANGIOMA, CHOLANGIOCELLULAR CARCINOMA, GALL BLADDER: TUMOR",active; positive
same,carcinogen call,"Species: FISH, Strain/Sex: SHASTA RAINBOW TROUT/MALE, FEMALE, Route: ORAL, Dose: 0, 2000 PPM IN DIET FOR 18 MO (STUDY DURATION: 18 MO), Tumor Site: Type of Lesion: STOMACH: PAPILLOMA",active; positive
same,carcinogen call,"Species: MOUSE, Strain/Sex: B6C3F1/FEMALE, Route: GAVAGE, Dose: 0, 62, 107 MG/KG, TWA IN CORN OIL (STUDY DURATION: 78-90 WK), Dose: 0, 62, 107 MG/KG, TWA IN CORN OIL (STUDY DURATION: 78-90 WK), Tumor Site: Type of Lesion: LUNG: ALVEOLAR/BRONCHIOLAR ADENOMA, CARCINOMA, STOMACH: SQUAMOUS CELL CARCINOMA",active; positive
same,carcinogen call,"Species: MOUSE, Strain/Sex: B6C3F1/FEMALE, Route: INHALATION, Dose: 0, 10, 40 PPM 6 HR/D, 5 D/WK FOR 90-103 WK (STUDY DURATION: 91-104 WK), Dose: 0, 10, 40 PPM 6 HR/D, 5 D/WK FOR 90-103 WK (STUDY DURATION: 91-104 WK), Tumor Site: Type of Lesion: INTEGUMENTARY SYSTEM (SUBCUTANEOUS TISSUE OR RIB): FIBROSARCOMA, NASAL CAVITY: CARCINOMA (NOS), CARCINOMA (NOS) OR ADENO",active; positive
same,carcinogen call,"Species: MOUSE, Strain/Sex: B6C3F1/FEMALE, Route: INHALATION, Dose: 0, 10, 40 PPM 6 HR/D, 5 D/WK FOR 90-103 WK (STUDY DURATION: 91-104 WK), Dose: 0, 10, 40 PPM 6 HR/D, 5 D/WK FOR 90-103 WK (STUDY DURATION: 91-104 WK), Tumor Site: Type of Lesion: NASAL CAVITY: SQUAMOUS CELL PAPILLOMA, CARCINOMA",active; positive
same,carcinogen call,"Species: MOUSE, Strain/Sex: B6C3F1/MALE, Route: GAVAGE, Dose: 0, 62, 107 MG/KG, TWA IN CORN OIL (STUDY DURATION: 77-78 WK), Dose: 0, 62, 107 MG/KG, TWA IN CORN OIL (STUDY DURATION: 77-78 WK), Tumor Site: Type of Lesion: LUNG: ALVEOLAR/BRONCHIOLAR ADENOMA, STOMACH: SQUAMOUS CELL PAPILLOMA, SQUAMOUS CELL CARCINOMA",active; positive
same,carcinogen call,"Species: MOUSE, Strain/Sex: B6C3F1/MALE, Route: INHALATION, Dose: 0, 10, 40 PPM 6 HR/D, 5 D/WK FOR 78 WK (STUDY DURATION: 79 WK), Dose: 0, 10, 40 PPM 6 HR/D, 5 D/WK FOR 78 WK (STUDY DURATION: 79 WK), Tumor Site: Type of Lesion: LUNG: ALVEOLAR/BRONCHIOLAR ADENOMA, ALVEOLAR/BRONCHIOLAR CARCINOMA",active; positive
same,carcinogen call,"Species: MOUSE, Strain/Sex: B6C3F1/MALE, Route: INHALATION, Dose: 0, 10, 40 PPM 6 HR/D, 5 D/WK FOR 90-103 WK (STUDY DURATION: 91-104 WK), Dose: 0, 10, 40 PPM 6 HR/D, 5 D/WK FOR 90-103 WK (STUDY DURATION: 91-104 WK), Tumor Site: Type of Lesion: NASAL CAVITY: SQUAMOUS CELL PAPILLOMA",active; positive
same,carcinogen call,"Species: RAT, Strain/Sex: F344/FEMALE, Route: INHALATION, Dose: 0, 10, 40 PPM 6 HR/D, 5 D/WK FOR 91-103 WK (STUDY DURATION: 92-104 WK), Dose: 0, 10, 40 PPM 6 HR/D, 5 D/WK FOR 91-103 WK (STUDY DURATION: 92-104 WK), Tumor Site: Type of Lesion: NASAL CAVITY: ADENOMA (NOS), CARCINOMA (NOS), ADENOCARCINOMA (NOS);LUNG: ALVEOLAR/BRONCHIOLAR ADENOMA OR CARCINOMA;SPLEE",active; positive
same,carcinogen call,"Species: RAT, Strain/Sex: F344/MALE, Route: INHALATION, Dose: 0, 10, 40 PPM 6 HR/D, 5 D/WK FOR 88-103 WK (STUDY DURATION: 89-104 WK), Dose: 0, 10, 40 PPM 6 HR/D, 5 D/WK FOR 88-103 WK (STUDY DURATION: 89-104 WK), Tumor Site: Type of Lesion: NASAL CAVITY: ADENOMA (NOS), ADENOCARCINOMA (NOS), CARCINOMA (NOS), ADENOMATOUS POLYP (NOS), CIRCULATORY SYSTEM: HEMANGI",active; positive
same,carcinogen call,"Species: RAT, Strain/Sex: OSBORNE-MENDEL/FEMALE, Route: GAVAGE, Dose: 0, 37, 39 MG/KG, TWA IN CORN OIL (STUDY DURATION: 61 WK), Dose: 0, 37, 39 MG/KG, TWA IN CORN OIL (STUDY DURATION: 61 WK), Tumor Site: Type of Lesion: STOMACH: SQUAMOUS CELL CARCINOMA, LIVER: HEPATOCELLULAR CARCINOMA, NEOPLASTIC NODULE",active; positive
same,carcinogen call,"Species: RAT, Strain/Sex: OSBORNE-MENDEL/MALE, Route: GAVAGE, Dose: 0, 38, 41 MG/KG, TWA IN CORN OIL (STUDY DURATION: 49 WK), Dose: 0, 38, 41 MG/KG, TWA IN CORN OIL (STUDY DURATION: 49 WK), Tumor Site: Type of Lesion: BLOOD VESSELS: HEMANGIOSARCOMA, STOMACH: SQUAMOUS CELL CARCINOMA",active; positive
same,carcinogen call,"Species: RAT, Strain/Sex: SPRAGUE-DAWLEY/FEMALE, Route: INHALATION, Dose: 20 PPM 7 HR/D, 5 D/WK FOR 18 MO, Tumor Site: Type of Lesion: SPLEEN: HEMANGIOSARCOMA, ADRENAL GLAND: PHEOCHROMOCYTOMA, CORTICAL ADENOMA, CARCINOMA, MAMMARY GLAND: ADENOMA, FIBROADEN, Tumor Site: Type of Lesion: SPLEEN: HEMANGIOSARCOMA, ADRENAL GLAND: PHEOCHROMOCYTOMA, CORTICAL ADENOMA, CARCINOMA, MAMMARY GLAND: ADENOMA, FIBROADEN",active; positive
same,carcinogen call,"Species: RAT, Strain/Sex: SPRAGUE-DAWLEY/MALE, Route: INHALATION, Dose: 20 PPM 7 HR/D, 5 D/WK FOR 18 MO, Tumor Site: Type of Lesion: SPLEEN: HEMANGIOSARCOMA, ADRENAL GLAND: PHEOCHROMOCYTOMA, CORTICAL ADENOMA, CARCINOMA, INTEGUMENTARY SYSTEM (SUBCUTANEOU, Tumor Site: Type of Lesion: SPLEEN: HEMANGIOSARCOMA, ADRENAL GLAND: PHEOCHROMOCYTOMA, CORTICAL ADENOMA, CARCINOMA, INTEGUMENTARY SYSTEM (SUBCUTANEOU",active; positive
O=C(c1ccccc1)C(O)c1ccccc1 (configuration not stated),carcinogen call,"Species: MOUSE, Strain/Sex: B6C3F1/FEMALE, Route: ORAL, Dose: 0, 2500, 5000 PPM IN DIET, Dose: 0, 2500, 5000 PPM IN DIET",inactive; negative
same,carcinogen call,"Species: MOUSE, Strain/Sex: B6C3F1/MALE, Route: ORAL, Dose: 0, 2500, 5000 PPM IN DIET, Dose: 0, 2500, 5000 PPM IN DIET",inactive; negative
same,carcinogen call,"Species: RAT, Strain/Sex: F344/FEMALE, Route: ORAL, Dose: 0, 250, 500 PPM IN DIET, Dose: 0, 250, 500 PPM IN DIET",inactive; negative
same,carcinogen call,"Species: RAT, Strain/Sex: F344/MALE, Route: ORAL, Dose: 0, 125, 250 PPM IN DIET, Dose: 0, 125, 250 PPM IN DIET",inactive; negative
COc1ccccc1N,carcinogen call,"Species: MOUSE, Strain/Sex: B6C3F1/FEMALE, Route: ORAL, Dose: 0, 2500, 5000 PPM IN DIET FOR 103 WK (STUDY DURATION: 105 WK), Dose: 0, 2500, 5000 PPM IN DIET FOR 103 WK (STUDY DURATION: 105 WK), Tumor Site: Type of Lesion: URINARY BLADDER: TRANSITIONAL CELL CARCINOMA, TRANSITIONAL CELL PAPILLOMA OR CARCINOMA",active; positive
same,carcinogen call,"Species: MOUSE, Strain/Sex: B6C3F1/MALE, Route: ORAL, Dose: 0, 2500, 5000 PPM IN DIET FOR 103 WK (STUDY DURATION: 104-105 WK), Dose: 0, 2500, 5000 PPM IN DIET FOR 103 WK (STUDY DURATION: 104-105 WK), Tumor Site: Type of Lesion: URINARY BLADDER: TRANSITIONAL CELL CARCINOMA, TRANSITIONAL CELL PAPILLOMA OR CARCINOMA",active; positive
same,carcinogen call,"Species: RAT, Strain/Sex: F344/FEMALE, Route: ORAL, Dose: 0, 5000, 10000 PPM IN DIET FOR 83-103 WK (STUDY DURATION: 83-107 WK), Dose: 0, 5000, 10000 PPM IN DIET FOR 83-103 WK (STUDY DURATION: 83-107 WK), Tumor Site: Type of Lesion: URINARY BLADDER: TRANSITIONAL CELL CARCINOMA, TRANSITIONAL CELL PAPILLOMA OR CARCINOMA",active; positive
same,carcinogen call,"Species: RAT, Strain/Sex: F344/MALE, Route: ORAL, Dose: 0, 5000, 10000 PPM IN DIET FOR 88-103 WK (STUDY DURATION: 88-106 WK), Dose: 0, 5000, 10000 PPM IN DIET FOR 88-103 WK (STUDY DURATION: 88-106 WK), Tumor Site: Type of Lesion: KIDNEY OR KIDNEY (PELVIS): TRANSITIONAL CELL CARCINOMA, URINARY BLADDER: TRANSITIONAL CELL CARCINOMA, TRANSITIONAL CELL",active; positive
